Source: US20240415914A1, “Water Dispersible Cannabinoid Compositions” (priority 2021, published 2024)
Like-named read-outs stand apart in the source and are kept apart here.

Legend:
[1] = assay type: physicochemical; settings: stored at room temperature (21-25° C.)
Protocol: At each time period, 0.05 g of powder was dissolved in 10 ml-15 of ethanol, diluted to fall within the analytical range, and injected into the LCMSMS for analysis.

[2] = Stability of cannabinoid and Vitamin E components of Beverage 2 (AB Red) stored at 8° C. and 21-25° C., LCMSMS over 570 days
Protocol: The LCMSMS was calibrated for 0-50 ng/ml cannabinoids with the same resin material used in the preparation of the concentrates. At each time period, 100 μml of beverage was diluted with 10 ml of methanol and injected into the LCMSMS for analysis.

CCCCCc1cc2c(c(O)c1C(=O)O)[C@@H]1C=C(C)CC[C@H]1C(C)(C)O2 [D9 THCA, delta-9-tetrahydrocannabinolic acid]
Stability in Powder Concentrate (content by LCMSMS) ([1]; day 0): 0.150 mg/g powder | Stability in Powder Concentrate (content by LCMSMS) ([1]; day 1): 0.150 mg/g powder | Stability in Powder Concentrate (content by LCMSMS) ([1]; day 2): 0.147 mg/g powder | Stability in Powder Concentrate (content by LCMSMS) ([1]; day 3): 0.150 mg/g powder | Stability in Powder Concentrate (content by LCMSMS) ([1]; day 5): 0.146 mg/g powder | Stability in Powder Concentrate (content by LCMSMS) ([1]; day 8): 0.156 mg/g powder | Stability in Powder Concentrate (content by LCMSMS) ([1]; day 9): 0.151 mg/g powder | Stability in Powder Concentrate (content by LCMSMS) ([1]; day 10): 0.148 mg/g powder | Stability in Powder Concentrate (content by LCMSMS) ([1]; day 11): 0.145 mg/g powder | Stability in Powder Concentrate (content by LCMSMS) ([1]; day 12): 0.152 mg/g powder | Stability in Powder Concentrate (content by LCMSMS) ([1]; day 15): 0.151 mg/g powder | Stability in Powder Concentrate (content by LCMSMS) ([1]; day 16): 0.157 mg/g powder | Stability in Powder Concentrate (content by LCMSMS) ([1]; day 17): 0.156 mg/g powder | Stability in Powder Concentrate (content by LCMSMS) ([1]; day 18): 0.149 mg/g powder | Stability in Powder Concentrate (content by LCMSMS) ([1]; day 19): 0.146 mg/g powder | Stability in Powder Concentrate (content by LCMSMS) ([1]; day 22): 0.150 mg/g powder | Stability in Powder Concentrate (content by LCMSMS) ([1]; day 23): 0.147 mg/g powder | Stability in Powder Concentrate (content by LCMSMS) ([1]; day 24): 0.150 mg/g powder | Stability in Powder Concentrate (content by LCMSMS) ([1]; day 25): 0.150 mg/g powder | Stability in Powder Concentrate (content by LCMSMS) ([1]; day 26): 0.150 mg/g powder | Stability in Powder Concentrate (content by LCMSMS) ([1]; day 29): 0.152 mg/g powder | Stability in Powder Concentrate (content by LCMSMS) ([1]; day 30): 0.151 mg/g powder | Stability in Powder Concentrate (content by LCMSMS) ([1]; day 60): 0.146 mg/g powder | Stability in Powder Concentrate (content by LCMSMS) ([1]; day 90): 0.147 mg/g powder | Stability in Powder Concentrate (content by LCMSMS) ([1]; day 120): 0.147 mg/g powder | Stability in Powder Concentrate (content by LCMSMS) ([1]; day 150): 0.153 mg/g powder | Stability in Powder Concentrate (content by LCMSMS) ([1]; day 180): 0.154 mg/g powder | Stability in Powder Concentrate (content by LCMSMS) ([1]; day 210): 0.151 mg/g powder | Stability in Powder Concentrate (content by LCMSMS) ([1]; day 240): 0.148 mg/g powder | Stability in Powder Concentrate (content by LCMSMS) ([1]; day 270): 0.148 mg/g powder | Stability in Powder Concentrate (content by LCMSMS) ([1]; day 300): 0.156 mg/g powder | Stability in Powder Concentrate (content by LCMSMS) ([1]; day 330): 0.156 mg/g powder | Stability in Powder Concentrate (content by LCMSMS) ([1]; day 360): 0.155 mg/g powder | Stability in Powder Concentrate (content by LCMSMS) ([1]; day 390): 0.153 mg/g powder | Stability in Powder Concentrate (content by LCMSMS) ([1]; day 420): 0.154 mg/g powder | Stability in Powder Concentrate (content by LCMSMS) ([1]; day 450): 0.155 mg/g powder | Stability in Powder Concentrate (content by LCMSMS) ([1]; day 480): 0.149 mg/g powder | Stability in Powder Concentrate (content by LCMSMS) ([1]; day 510): 0.154 mg/g powder | Stability in Powder Concentrate (content by LCMSMS) ([1]; day 540): 0.154 mg/g powder | Stability in Powder Concentrate (content by LCMSMS) ([1]; day 570): 0.148 mg/g powder | Stability of Cannabinoids in AB Red ([2]; 8° C., 0 days): 1.35 µg/mL | Stability of Cannabinoids in AB Red ([2]; 8° C., 1 days): 1.34 µg/mL | Stability of Cannabinoids in AB Red ([2]; 8° C., 2 days): 1.34 µg/mL | Stability of Cannabinoids in AB Red ([2]; 8° C., 3 days): 1.35 µg/mL | Stability of Cannabinoids in AB Red ([2]; 8° C., 5 days): 1.36 µg/mL | Stability of Cannabinoids in AB Red ([2]; 8° C., 8 days): 1.35 µg/mL | Stability of Cannabinoids in AB Red ([2]; 8° C., 9 days): 1.36 µg/mL | Stability of Cannabinoids in AB Red ([2]; 8° C., 10 days): 1.35 µg/mL | Stability of Cannabinoids in AB Red ([2]; 8° C., 11 days): 1.35 µg/mL | Stability of Cannabinoids in AB Red ([2]; 8° C., 12 days): 1.32 µg/mL | Stability of Cannabinoids in AB Red ([2]; 8° C., 15 days): 1.33 µg/mL | Stability of Cannabinoids in AB Red ([2]; 8° C., 16 days): 1.31 µg/mL | Stability of Cannabinoids in AB Red ([2]; 8° C., 17 days): 1.34 µg/mL | Stability of Cannabinoids in AB Red ([2]; 8° C., 18 days): 1.35 µg/mL | Stability of Cannabinoids in AB Red ([2]; 8° C., 19 days): 1.32 µg/mL | Stability of Cannabinoids in AB Red ([2]; 8° C., 22 days): 1.34 µg/mL | Stability of Cannabinoids in AB Red ([2]; 8° C., 23 days): 1.33 µg/mL | Stability of Cannabinoids in AB Red ([2]; 8° C., 24 days): 1.33 µg/mL | Stability of Cannabinoids in AB Red ([2]; 8° C., 25 days): 1.34 µg/mL | Stability of Cannabinoids in AB Red ([2]; 8° C., 26 days): 1.33 µg/mL | Stability of Cannabinoids in AB Red ([2]; 8° C., 29 days): 1.35 µg/mL | Stability of Cannabinoids in AB Red ([2]; 8° C., 30 days): 1.31 µg/mL | Stability of Cannabinoids in AB Red ([2]; 8° C., 60 days): 1.32 µg/mL | Stability of Cannabinoids in AB Red ([2]; 8° C., 90 days): 1.34 µg/mL | Stability of Cannabinoids in AB Red ([2]; 8° C., 120 days): 1.30 µg/mL | Stability of Cannabinoids in AB Red ([2]; 8° C., 150 days): 1.34 µg/mL | Stability of Cannabinoids in AB Red ([2]; 8° C., 180 days): 1.30 µg/mL | Stability of Cannabinoids in AB Red ([2]; 8° C., 210 days): 1.33 µg/mL | Stability of Cannabinoids in AB Red ([2]; 8° C., 240 days): 1.32 µg/mL | Stability of Cannabinoids in AB Red ([2]; 8° C., 270 days): 1.33 µg/mL | Stability of Cannabinoids in AB Red ([2]; 8° C., 300 days): 1.30 µg/mL | Stability of Cannabinoids in AB Red ([2]; 8° C., 330 days): 1.34 µg/mL | Stability of Cannabinoids in AB Red ([2]; 8° C., 390 days): 1.29 µg/mL | Stability of Cannabinoids in AB Red ([2]; 8° C., 420 days): 1.29 µg/mL | Stability of Cannabinoids in AB Red ([2]; 8° C., 450 days): 1.31 µg/mL | Stability of Cannabinoids in AB Red ([2]; 8° C., 480 days): 1.28 µg/mL | Stability of Cannabinoids in AB Red ([2]; 8° C., 510 days): 1.25 µg/mL | Stability of Cannabinoids in AB Red ([2]; 8° C., 540 days): 1.26 µg/mL | Stability of Cannabinoids in AB Red ([2]; 8° C., 570 days): 1.24 µg/mL | Stability of Cannabinoids in AB Red ([2]; 21-25° C., 0 days): 1.35 µg/mL | Stability of Cannabinoids in AB Red ([2]; 21-25° C., 1 days): 1.34 µg/mL | Stability of Cannabinoids in AB Red ([2]; 21-25° C., 2 days): 1.30 µg/mL | Stability of Cannabinoids in AB Red ([2]; 21-25° C., 3 days): 1.32 µg/mL | Stability of Cannabinoids in AB Red ([2]; 21-25° C., 5 days): 1.36 µg/mL | Stability of Cannabinoids in AB Red ([2]; 21-25° C., 8 days): 1.36 µg/mL | Stability of Cannabinoids in AB Red ([2]; 21-25° C., 9 days): 1.35 µg/mL | Stability of Cannabinoids in AB Red ([2]; 21-25° C., 10 days): 1.33 µg/mL | Stability of Cannabinoids in AB Red ([2]; 21-25° C., 11 days): 1.33 µg/mL | Stability of Cannabinoids in AB Red ([2]; 21-25° C., 12 days): 1.33 µg/mL | Stability of Cannabinoids in AB Red ([2]; 21-25° C., 15 days): 1.30 µg/mL | Stability of Cannabinoids in AB Red ([2]; 21-25° C., 16 days): 1.36 µg/mL | Stability of Cannabinoids in AB Red ([2]; 21-25° C., 17 days): 1.35 µg/mL | Stability of Cannabinoids in AB Red ([2]; 21-25° C., 18 days): 1.36 µg/mL | Stability of Cannabinoids in AB Red ([2]; 21-25° C., 19 days): 1.31 µg/mL | Stability of Cannabinoids in AB Red ([2]; 21-25° C., 22 days): 1.34 µg/mL | Stability of Cannabinoids in AB Red ([2]; 21-25° C., 23 days): 1.36 µg/mL | Stability of Cannabinoids in AB Red ([2]; 21-25° C., 24 days): 1.30 µg/mL | Stability of Cannabinoids in AB Red ([2]; 21-25° C., 25 days): 1.35 µg/mL | Stability of Cannabinoids in AB Red ([2]; 21-25° C., 26 days): 1.32 µg/mL | Stability of Cannabinoids in AB Red ([2]; 21-25° C., 29 days): 1.33 µg/mL | Stability of Cannabinoids in AB Red ([2]; 21-25° C., 30 days): 1.34 µg/mL | Stability of Cannabinoids in AB Red ([2]; 21-25° C., 60 days): 1.28 µg/mL | Stability of Cannabinoids in AB Red ([2]; 21-25° C., 90 days): 1.34 µg/mL | Stability of Cannabinoids in AB Red ([2]; 21-25° C., 120 days): 1.34 µg/mL | Stability of Cannabinoids in AB Red ([2]; 21-25° C., 150 days): 1.28 µg/mL | Stability of Cannabinoids in AB Red ([2]; 21-25° C., 180 days): 1.30 µg/mL | Stability of Cannabinoids in AB Red ([2]; 21-25° C., 210 days): 1.33 µg/mL | Stability of Cannabinoids in AB Red ([2]; 21-25° C., 240 days): 1.31 µg/mL | Stability of Cannabinoids in AB Red ([2]; 21-25° C., 270 days): 1.27 µg/mL | Stability of Cannabinoids in AB Red ([2]; 21-25° C., 300 days): 1.27 µg/mL | Stability of Cannabinoids in AB Red ([2]; 21-25° C., 330 days): 1.28 µg/mL | Stability of Cannabinoids in AB Red ([2]; 21-25° C., 390 days): 1.26 µg/mL | Stability of Cannabinoids in AB Red ([2]; 21-25° C., 420 days): 1.26 µg/mL | Stability of Cannabinoids in AB Red ([2]; 21-25° C., 450 days): 1.31 µg/mL | Stability of Cannabinoids in AB Red ([2]; 21-25° C., 480 days): 1.29 µg/mL | Stability of Cannabinoids in AB Red ([2]; 21-25° C., 510 days): 1.27 µg/mL | Stability of Cannabinoids in AB Red ([2]; 21-25° C., 540 days): 1.29 µg/mL | Stability of Cannabinoids in AB Red ([2]; 21-25° C., 570 days): 1.24 µg/mL
